pEC50: −log10 of the molar value.
Columns and labels:
[1] = target: T1, Metabotropic glutamate receptor 6 (Rattus norvegicus, UniProt P35349); test: Metabotropic glutamate receptor 6 agonist activity to influence forskolin stimulated c-AMP formation in rat non neuronal cells; format: functional, cell-based
[2] = target: T2, Metabotropic glutamate receptor 4 (Rattus norvegicus, UniProt P31423); test: Metabotropic glutamate receptor 4 agonist activity to influence forskolin stimulated c-AMP formation in rat non neuronal cells; format: functional, cell-based
T2 sequence (P31423 whole entry): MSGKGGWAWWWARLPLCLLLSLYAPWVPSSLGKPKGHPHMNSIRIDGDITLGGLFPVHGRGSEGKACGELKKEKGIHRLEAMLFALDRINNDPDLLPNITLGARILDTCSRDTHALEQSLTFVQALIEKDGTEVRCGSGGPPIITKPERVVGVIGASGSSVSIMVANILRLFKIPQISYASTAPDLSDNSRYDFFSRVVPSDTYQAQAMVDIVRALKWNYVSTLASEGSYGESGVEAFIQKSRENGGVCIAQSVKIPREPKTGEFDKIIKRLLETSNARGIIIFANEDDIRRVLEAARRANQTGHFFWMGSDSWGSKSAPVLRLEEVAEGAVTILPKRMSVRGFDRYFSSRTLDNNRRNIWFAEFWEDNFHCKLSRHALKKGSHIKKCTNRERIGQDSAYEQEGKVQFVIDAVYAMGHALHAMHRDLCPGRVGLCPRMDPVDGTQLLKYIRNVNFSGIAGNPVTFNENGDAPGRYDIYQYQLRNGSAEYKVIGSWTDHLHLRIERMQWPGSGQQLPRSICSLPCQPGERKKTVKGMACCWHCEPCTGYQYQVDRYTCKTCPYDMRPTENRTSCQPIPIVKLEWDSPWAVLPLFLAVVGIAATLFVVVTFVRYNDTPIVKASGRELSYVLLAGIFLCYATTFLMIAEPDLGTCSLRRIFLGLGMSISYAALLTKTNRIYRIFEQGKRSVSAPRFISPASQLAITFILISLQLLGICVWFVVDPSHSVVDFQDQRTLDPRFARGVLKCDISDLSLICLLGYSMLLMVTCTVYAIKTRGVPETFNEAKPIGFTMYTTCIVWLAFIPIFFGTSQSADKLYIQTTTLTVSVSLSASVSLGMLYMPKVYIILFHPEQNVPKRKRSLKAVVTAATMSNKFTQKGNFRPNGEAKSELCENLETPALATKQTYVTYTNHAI

[3] = target: Metabotropic glutamate receptor 2 (Rattus norvegicus, UniProt P31421); test: Metabotropic glutamate receptor 2 agonist activity against forskolin stimulated c-AMP formation in rat non neuronal cells; format: functional, cell-based
Sequence of Metabotropic glutamate receptor 2 (P31421 whole entry): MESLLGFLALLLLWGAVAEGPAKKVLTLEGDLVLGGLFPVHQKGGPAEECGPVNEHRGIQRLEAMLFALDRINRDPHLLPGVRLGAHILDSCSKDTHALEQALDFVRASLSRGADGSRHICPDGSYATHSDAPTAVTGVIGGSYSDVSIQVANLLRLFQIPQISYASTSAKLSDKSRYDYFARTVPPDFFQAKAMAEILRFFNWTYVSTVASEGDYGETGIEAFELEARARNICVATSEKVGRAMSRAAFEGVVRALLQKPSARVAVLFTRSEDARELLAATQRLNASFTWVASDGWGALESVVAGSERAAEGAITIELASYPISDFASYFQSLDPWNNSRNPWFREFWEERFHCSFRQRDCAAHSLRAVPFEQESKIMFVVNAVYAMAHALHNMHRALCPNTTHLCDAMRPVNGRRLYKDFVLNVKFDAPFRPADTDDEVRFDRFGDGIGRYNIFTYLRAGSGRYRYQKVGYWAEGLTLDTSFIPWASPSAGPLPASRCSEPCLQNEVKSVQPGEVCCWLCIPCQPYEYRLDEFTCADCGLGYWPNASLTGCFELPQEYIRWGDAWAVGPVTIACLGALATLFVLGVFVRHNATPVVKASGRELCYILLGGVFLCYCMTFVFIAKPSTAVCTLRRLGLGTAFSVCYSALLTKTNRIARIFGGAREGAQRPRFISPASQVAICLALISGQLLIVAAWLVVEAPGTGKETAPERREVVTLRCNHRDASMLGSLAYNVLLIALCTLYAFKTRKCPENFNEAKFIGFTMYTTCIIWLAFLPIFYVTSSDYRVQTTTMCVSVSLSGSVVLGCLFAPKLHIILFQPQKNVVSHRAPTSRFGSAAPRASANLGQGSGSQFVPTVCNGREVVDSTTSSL

[4] = target: Metabotropic glutamate receptor 1 (Rattus norvegicus, UniProt P23385); test: Metabotropic glutamate receptor 1 agonist activity as basal [3H]- IP formation in rat; format: functional
Sequence of Metabotropic glutamate receptor 1 (P23385 whole entry): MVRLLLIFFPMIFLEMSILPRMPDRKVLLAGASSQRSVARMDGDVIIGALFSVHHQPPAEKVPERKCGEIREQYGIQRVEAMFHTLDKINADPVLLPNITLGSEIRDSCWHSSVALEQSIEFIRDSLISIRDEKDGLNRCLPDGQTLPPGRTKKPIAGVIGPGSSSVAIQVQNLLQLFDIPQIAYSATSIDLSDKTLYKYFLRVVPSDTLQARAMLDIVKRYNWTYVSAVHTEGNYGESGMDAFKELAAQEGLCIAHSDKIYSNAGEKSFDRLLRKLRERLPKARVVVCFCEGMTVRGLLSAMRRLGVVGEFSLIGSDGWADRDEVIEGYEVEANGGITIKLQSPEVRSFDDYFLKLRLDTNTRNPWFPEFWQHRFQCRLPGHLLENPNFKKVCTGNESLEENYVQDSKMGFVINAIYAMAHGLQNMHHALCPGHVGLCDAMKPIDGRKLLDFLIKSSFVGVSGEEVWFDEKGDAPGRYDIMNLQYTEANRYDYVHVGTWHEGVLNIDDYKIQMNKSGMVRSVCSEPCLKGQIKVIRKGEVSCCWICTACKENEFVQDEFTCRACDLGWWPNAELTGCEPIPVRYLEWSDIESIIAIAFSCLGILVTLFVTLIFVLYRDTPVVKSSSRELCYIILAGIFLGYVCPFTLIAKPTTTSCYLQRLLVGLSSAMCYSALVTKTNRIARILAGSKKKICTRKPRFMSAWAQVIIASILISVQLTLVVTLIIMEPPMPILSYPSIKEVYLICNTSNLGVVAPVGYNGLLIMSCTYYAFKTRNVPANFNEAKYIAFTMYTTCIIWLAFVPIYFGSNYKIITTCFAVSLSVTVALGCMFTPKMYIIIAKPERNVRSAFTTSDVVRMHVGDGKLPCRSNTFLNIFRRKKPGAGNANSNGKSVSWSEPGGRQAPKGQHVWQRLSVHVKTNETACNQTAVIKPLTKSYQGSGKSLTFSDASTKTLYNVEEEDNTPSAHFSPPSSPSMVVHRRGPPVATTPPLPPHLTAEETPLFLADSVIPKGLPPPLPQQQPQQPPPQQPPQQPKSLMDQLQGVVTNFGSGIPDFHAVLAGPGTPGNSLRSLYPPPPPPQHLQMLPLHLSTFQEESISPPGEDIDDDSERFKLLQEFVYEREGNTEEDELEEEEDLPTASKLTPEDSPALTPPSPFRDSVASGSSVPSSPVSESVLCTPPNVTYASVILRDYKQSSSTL

[5] = target: Metabotropic glutamate receptor 3 (Rattus norvegicus, UniProt P31422); test: Metabotropic glutamate receptor 3 agonist activity against forskolin stimulated c-AMP formation in rat non neuronal cells; format: functional, cell-based
[6] = target: Metabotropic glutamate receptor 5 (Rattus norvegicus, UniProt P31424); test: Metabotropic glutamate receptor 5 agonist activity as basal [3H]- IP formation in rat; format: functional
Sequence of Metabotropic glutamate receptor 5 (P31424 whole entry): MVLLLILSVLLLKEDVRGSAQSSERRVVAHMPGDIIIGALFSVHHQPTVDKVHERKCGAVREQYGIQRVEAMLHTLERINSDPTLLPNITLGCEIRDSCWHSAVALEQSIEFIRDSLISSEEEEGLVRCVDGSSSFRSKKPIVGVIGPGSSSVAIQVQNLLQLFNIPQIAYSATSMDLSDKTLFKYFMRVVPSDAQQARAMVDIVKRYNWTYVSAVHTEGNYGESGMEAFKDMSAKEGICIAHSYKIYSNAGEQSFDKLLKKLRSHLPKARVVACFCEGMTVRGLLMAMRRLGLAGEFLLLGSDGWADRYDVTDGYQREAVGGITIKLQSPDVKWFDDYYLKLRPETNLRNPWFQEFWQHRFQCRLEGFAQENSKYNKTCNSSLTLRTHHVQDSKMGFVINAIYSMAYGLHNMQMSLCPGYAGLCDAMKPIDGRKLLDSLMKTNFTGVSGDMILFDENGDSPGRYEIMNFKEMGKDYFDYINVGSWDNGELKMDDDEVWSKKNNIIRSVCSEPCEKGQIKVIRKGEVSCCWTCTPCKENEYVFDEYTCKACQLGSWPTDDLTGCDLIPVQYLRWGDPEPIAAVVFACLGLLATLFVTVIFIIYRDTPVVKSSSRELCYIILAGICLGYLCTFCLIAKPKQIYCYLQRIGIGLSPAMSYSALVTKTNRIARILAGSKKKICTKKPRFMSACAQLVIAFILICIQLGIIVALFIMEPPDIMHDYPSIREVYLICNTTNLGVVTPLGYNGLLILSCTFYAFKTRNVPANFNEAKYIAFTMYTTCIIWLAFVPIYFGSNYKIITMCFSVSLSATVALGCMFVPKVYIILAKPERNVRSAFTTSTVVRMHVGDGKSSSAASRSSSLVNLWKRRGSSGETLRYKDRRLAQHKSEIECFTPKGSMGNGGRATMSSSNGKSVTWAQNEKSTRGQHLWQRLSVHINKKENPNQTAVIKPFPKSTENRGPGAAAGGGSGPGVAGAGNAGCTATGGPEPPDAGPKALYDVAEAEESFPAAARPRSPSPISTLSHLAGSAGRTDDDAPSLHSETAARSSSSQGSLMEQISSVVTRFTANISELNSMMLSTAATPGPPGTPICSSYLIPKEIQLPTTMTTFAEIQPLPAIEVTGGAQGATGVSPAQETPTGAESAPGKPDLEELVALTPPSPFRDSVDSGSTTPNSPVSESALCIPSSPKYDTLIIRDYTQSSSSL

[7] = target: T3, Metabotropic glutamate receptor 7 (Rattus norvegicus, UniProt P35400); test: Metabotropic glutamate receptor 7 agonist activity to influence forskolin stimulated c-AMP formation in rat non neuronal cells; format: functional, cell-based
[8] = target: T4, Metabotropic glutamate receptor 8 (Rattus norvegicus, UniProt P70579); test: Metabotropic glutamate receptor 8 agonist activity against forskolin stimulated c-AMP formation in rat non neuronal cells; format: functional, cell-based
T4 sequence (P70579 whole entry): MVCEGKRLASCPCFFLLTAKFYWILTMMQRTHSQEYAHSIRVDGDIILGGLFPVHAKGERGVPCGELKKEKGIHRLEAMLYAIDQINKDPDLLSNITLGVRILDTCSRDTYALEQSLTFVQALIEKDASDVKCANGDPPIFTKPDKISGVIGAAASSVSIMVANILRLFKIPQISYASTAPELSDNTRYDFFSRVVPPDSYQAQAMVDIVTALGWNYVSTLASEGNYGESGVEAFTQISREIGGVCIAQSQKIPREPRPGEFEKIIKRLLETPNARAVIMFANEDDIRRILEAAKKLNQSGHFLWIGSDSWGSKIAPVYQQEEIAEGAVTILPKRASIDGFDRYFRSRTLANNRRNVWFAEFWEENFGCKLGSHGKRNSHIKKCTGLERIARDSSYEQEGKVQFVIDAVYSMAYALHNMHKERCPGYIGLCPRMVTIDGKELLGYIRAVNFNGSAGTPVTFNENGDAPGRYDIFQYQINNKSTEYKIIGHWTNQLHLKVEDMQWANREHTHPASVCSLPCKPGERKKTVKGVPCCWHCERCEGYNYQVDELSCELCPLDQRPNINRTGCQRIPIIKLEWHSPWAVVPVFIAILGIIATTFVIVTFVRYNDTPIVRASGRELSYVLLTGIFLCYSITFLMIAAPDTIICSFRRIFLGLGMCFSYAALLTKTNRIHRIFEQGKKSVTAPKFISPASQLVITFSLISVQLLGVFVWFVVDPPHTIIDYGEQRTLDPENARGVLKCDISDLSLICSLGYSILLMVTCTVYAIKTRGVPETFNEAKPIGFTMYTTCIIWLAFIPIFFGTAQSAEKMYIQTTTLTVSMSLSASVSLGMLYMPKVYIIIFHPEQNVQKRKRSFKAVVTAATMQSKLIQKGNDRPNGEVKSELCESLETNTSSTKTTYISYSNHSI

[9] = target: T2, Metabotropic glutamate receptor 4; test: Metabotropic glutamate receptor 4 antagonist activity to influence forskolin stimulated c-AMP formation in rat non neuronal cells; format: functional, cell-based
[10] = target: T4, Metabotropic glutamate receptor 8; test: Metabotropic glutamate receptor 8 antagonist activity to influence forskolin stimulated c-AMP formation in rat non neuronal cells; format: functional, cell-based
[11] = target: T1, Metabotropic glutamate receptor 6; test: Metabotropic glutamate receptor 6 antagonist activity to influence forskolin stimulated c-AMP formation in rat non neuronal cells; format: functional, cell-based
[12] = target: T3, Metabotropic glutamate receptor 7; test: Metabotropic glutamate receptor 7 antagonist activity to influence forskolin stimulated c-AMP formation in rat non neuronal cells; format: functional, cell-based

Structure (SMILES) | pEC50 [1] | pEC50 [2] | pEC50 [3] | pEC50 [4] | pEC50 [5] | pEC50 [6] | pEC50 [7] | pEC50 [8] | pEC50 [9] | pEC50 [10] | pEC50 [11] | pEC50 [12]
N[C@H](C(=O)O)c1ccc(C(=O)O)c(C(=O)O)c1 | 5.44 | 5.06 | < 4.00 | 4.49 | < 4.00 | < 4.00 | < 4.00 | 7.51 | – | – | – | –
N[C@H](C(=O)O)[C@H]1[C@H](CC(=O)O)[C@@H]1C(=O)O | – | – | 6.52 | < 4.00 | – | < 4.00 | – | – | – | – | – | –
N[C@H](C(=O)O)[C@H]1C[C@@H]1C(=O)O | 6.22 | 5.40 | 6.52 | 4.64 | 6.22 | 4.77 | 4.33 | 6.40 | – | – | – | –
N[C@H](C(=O)O)C1[C@@H](C(=O)O)[C@@H]1C(=O)O (some centres undefined) | – | – | – | < 4.00 | 6.70 | 3.41 | – | – | 4.64 | 4.49 | 4.40 | 4.40
C[C@H]1[C@H](C(=O)O)[C@H]1[C@H](N)C(=O)O | 5.92 | < 4.00 | 8.10 | < 4.00 | 7.42 | < 4.00 | < 4.00 | 5.88 | – | – | – | –
N[C@@H](CCP(=O)(O)O)C(=O)O | 7.26 | 6.49 | 3.35 | < 4.00 | < 4.00 | < 4.00 | 3.76 | 7.22 | – | – | – | –
N[C@H](C(=O)O)[C@H]1[C@@H](CC(=O)O)[C@@H]1C(=O)O | – | – | 7.00 | < 4.00 | – | < 4.00 | – | – | – | – | – | –
N[C@H](C(=O)O)[C@@H]1[C@@H](C(=O)O)C1(F)F | – | – | 7.05 | – | – | – | – | – | – | – | – | –
NC(C(=O)O)c1ccc(P(=O)(O)O)cc1 (racemic) | 5.33 | 5.28 | < 3.52 | < 3.30 | < 3.70 | < 3.30 | 3.73 | 6.68 | – | – | – | –

Source: ChEMBL document CHEMBL1148386, “(2S,1'S,2'R,3'R)-2-(2'-Carboxy-3'-hydroxymethylcyclopropyl) glycine is a highly potent group 2 and 3 metabotropic glutamate receptor agonist with oral activity” (J Med Chem, 2004)
